# Tests used:
# Assay in all cases: isoTOP-ABPP mapping of AEA-DA-modified peptides in Neuro2a cells
# Type in all cases: cell-based
# [1] = target: T1, AEA-DA-modified peptides in Neuro2a cells (Mus musculus, UniProt O35459); conditions: probe 100 μM, 12 replicates
# T1 construct: endogenous in cells; host or cells: Neuro2a
# [2] = target: T2, AEA-DA-modified peptides in Neuro2a cells (Mus musculus, UniProt P61750); conditions: probe 100 μM, 12 replicates
# T2 construct: endogenous in cells; host or cells: Neuro2a
# T2 sequence (P61750 whole entry): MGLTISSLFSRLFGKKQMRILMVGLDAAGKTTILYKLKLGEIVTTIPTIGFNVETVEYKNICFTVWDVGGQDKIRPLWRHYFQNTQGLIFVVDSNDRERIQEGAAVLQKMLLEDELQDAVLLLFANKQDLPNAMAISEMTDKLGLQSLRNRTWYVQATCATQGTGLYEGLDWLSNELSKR
# [3] = target: T3, AEA-DA-modified peptides in Neuro2a cells (Mus musculus, UniProt Q8VC28); conditions: AEA-DA-modified peptide AKR1C13 Q8VC28 48-69, SEQ ID NO 7; probe 100 μM, 12 replicates
# T3 construct: endogenous in cells; host or cells: Neuro2a
# T3 sequence (Q8VC28 whole entry): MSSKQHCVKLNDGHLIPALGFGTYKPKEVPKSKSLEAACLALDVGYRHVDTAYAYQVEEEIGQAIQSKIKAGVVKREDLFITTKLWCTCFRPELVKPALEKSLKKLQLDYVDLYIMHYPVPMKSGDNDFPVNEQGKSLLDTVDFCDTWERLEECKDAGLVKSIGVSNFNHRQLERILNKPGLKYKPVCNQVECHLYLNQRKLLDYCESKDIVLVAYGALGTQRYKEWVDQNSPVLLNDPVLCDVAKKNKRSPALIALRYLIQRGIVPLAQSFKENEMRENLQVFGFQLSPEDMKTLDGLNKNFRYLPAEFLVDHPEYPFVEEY
# [4] = target: T4, AEA-DA-modified peptides in Neuro2a cells (Mus musculus, UniProt Q91WC3); conditions: AEA-DA-modified peptide ACSL6 Q91WC3 408-420, SEQ ID NO 3; probe 100 μM, 12 replicates
# T4 construct: endogenous in cells; host or cells: Neuro2a
# T4 sequence (Q91WC3 whole entry): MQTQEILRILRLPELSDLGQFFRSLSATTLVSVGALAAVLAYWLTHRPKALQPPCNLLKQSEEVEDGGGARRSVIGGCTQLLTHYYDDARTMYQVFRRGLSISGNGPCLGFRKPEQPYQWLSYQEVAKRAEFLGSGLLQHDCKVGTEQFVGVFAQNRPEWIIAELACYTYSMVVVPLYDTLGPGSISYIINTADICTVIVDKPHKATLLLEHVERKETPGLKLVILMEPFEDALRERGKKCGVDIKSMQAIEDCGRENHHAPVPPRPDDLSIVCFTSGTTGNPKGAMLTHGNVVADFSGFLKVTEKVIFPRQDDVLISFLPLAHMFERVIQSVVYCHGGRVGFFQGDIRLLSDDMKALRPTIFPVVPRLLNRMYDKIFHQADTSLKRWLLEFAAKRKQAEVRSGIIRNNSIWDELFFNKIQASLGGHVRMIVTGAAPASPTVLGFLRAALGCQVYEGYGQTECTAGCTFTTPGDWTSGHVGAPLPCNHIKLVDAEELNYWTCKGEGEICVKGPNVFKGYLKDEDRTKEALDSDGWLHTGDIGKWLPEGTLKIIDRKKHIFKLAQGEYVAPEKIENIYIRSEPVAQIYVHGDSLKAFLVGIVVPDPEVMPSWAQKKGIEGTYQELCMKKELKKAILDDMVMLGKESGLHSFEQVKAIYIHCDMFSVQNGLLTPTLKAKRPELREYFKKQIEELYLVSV
# [5] = target: T5, AEA-DA-modified peptides in Neuro2a cells (Mus musculus, UniProt Q8K411); conditions: AEA-DA-modified peptide PITRM1 Q8K411 364-386, SEQ ID NO 87; probe 100 μM, 12 replicates
# T5 construct: endogenous in cells; host or cells: Neuro2a
# T5 sequence (Q8K411 16-1036): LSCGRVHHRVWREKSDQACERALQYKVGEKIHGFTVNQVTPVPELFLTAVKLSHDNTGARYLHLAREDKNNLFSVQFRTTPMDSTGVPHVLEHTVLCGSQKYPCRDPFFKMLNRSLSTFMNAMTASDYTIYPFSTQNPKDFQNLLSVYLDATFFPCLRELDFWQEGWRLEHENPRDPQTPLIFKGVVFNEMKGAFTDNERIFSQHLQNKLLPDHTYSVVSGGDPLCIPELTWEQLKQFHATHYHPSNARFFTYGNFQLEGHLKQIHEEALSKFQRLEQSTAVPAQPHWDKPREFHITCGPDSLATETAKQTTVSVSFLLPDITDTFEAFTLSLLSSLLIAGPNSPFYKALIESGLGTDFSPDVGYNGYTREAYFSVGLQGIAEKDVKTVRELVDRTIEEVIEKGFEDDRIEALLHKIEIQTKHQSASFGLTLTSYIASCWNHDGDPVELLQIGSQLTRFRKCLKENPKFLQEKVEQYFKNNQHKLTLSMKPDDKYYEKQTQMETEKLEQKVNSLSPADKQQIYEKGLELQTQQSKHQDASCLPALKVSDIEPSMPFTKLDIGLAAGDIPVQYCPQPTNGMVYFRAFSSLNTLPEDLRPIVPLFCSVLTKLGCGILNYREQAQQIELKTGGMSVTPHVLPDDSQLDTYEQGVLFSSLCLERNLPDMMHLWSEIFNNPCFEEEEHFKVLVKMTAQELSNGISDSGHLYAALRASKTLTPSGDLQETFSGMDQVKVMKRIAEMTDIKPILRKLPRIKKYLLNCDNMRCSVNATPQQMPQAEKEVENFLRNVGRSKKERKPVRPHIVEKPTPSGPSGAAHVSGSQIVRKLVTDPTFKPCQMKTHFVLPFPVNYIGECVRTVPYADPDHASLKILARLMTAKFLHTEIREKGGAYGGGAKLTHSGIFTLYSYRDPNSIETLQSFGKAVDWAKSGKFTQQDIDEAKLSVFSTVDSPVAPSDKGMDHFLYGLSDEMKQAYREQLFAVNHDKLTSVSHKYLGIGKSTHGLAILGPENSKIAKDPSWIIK
# [6] = target: T6, AEA-DA-modified peptides in Neuro2a cells (Mus musculus, UniProt Q8BFY9); conditions: AEA-DA-modified peptide TNPO1 Q8BFY9 45-65, SEQ ID NO 114; probe 100 μM, 12 replicates
# T6 construct: endogenous in cells; host or cells: Neuro2a
# T6 sequence (Q8BFY9 whole entry): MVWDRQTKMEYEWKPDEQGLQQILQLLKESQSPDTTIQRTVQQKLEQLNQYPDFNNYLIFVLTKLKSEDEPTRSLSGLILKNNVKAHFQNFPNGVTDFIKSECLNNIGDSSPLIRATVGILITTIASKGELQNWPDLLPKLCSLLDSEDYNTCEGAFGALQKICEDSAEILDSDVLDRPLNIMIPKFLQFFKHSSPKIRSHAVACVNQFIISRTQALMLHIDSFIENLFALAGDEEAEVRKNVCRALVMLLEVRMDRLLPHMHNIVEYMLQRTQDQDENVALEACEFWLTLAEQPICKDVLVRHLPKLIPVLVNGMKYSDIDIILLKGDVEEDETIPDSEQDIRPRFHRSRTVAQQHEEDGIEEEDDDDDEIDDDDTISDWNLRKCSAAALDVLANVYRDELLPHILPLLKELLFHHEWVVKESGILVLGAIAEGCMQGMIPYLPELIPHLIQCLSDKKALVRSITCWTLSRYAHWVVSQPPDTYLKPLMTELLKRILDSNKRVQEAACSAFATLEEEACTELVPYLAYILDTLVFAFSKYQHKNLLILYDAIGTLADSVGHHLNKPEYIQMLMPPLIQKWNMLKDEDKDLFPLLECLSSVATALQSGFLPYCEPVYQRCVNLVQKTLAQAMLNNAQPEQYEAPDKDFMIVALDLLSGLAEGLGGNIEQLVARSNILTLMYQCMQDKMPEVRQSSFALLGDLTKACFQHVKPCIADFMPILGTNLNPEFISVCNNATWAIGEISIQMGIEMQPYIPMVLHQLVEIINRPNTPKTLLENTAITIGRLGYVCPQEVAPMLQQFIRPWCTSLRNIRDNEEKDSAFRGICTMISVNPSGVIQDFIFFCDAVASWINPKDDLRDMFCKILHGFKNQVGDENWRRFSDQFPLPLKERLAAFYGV
# [7] = target: T7, AEA-DA-modified peptides in Neuro2a cells (Mus musculus, UniProt P10649); conditions: AEA-DA-modified peptide GSTM1 P10649 109-123, SEQ ID NO 44; probe 100 μM, 12 replicates
# T7 construct: endogenous in cells; host or cells: Neuro2a
# T7 sequence (P10649 whole entry): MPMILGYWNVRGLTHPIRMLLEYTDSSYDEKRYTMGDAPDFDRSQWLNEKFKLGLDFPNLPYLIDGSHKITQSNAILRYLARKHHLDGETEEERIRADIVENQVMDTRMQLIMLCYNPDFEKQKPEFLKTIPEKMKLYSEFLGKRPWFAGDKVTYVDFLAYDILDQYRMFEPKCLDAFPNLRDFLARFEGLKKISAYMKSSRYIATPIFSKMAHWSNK
# [8] = target: T8, AEA-DA-modified peptides in Neuro2a cells (Mus musculus, UniProt P42208); conditions: AEA-DA-modified peptide SEPT2 P42208 78-92, SEQ ID NO 98; probe 100 μM, 12 replicates
# T8 construct: endogenous in cells; host or cells: Neuro2a
# T8 sequence (P42208 whole entry): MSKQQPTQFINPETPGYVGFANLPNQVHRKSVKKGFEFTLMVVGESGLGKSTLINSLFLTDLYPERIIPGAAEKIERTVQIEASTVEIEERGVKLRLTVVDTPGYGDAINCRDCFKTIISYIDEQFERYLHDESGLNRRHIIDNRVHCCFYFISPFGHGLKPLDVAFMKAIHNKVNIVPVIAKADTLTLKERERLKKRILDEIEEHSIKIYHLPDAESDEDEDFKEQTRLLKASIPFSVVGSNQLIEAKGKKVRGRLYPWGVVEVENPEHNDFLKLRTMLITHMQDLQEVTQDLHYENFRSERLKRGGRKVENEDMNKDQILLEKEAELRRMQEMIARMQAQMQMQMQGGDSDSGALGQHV
# [9] = target: T9, AEA-DA-modified peptides in Neuro2a cells (Mus musculus, UniProt P84084); conditions: AEA-DA-modified peptide ARF5 P84084 39-60, SEQ ID NO 14; probe 100 μM, 12 replicates
# T9 construct: endogenous in cells; host or cells: Neuro2a
# T9 sequence (P84084 whole entry): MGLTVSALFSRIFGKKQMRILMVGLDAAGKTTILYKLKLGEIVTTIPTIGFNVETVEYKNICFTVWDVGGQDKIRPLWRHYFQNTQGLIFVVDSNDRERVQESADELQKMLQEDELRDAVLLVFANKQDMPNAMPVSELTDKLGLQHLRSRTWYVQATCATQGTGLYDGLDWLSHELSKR
# [10] = target: T10, AEA-DA-modified peptides in Neuro2a cells (Mus musculus, UniProt Q9JKW0); conditions: AEA-DA-modified peptide ARL6IP1 Q9JKW0 8-36, SEQ ID NO 15; probe 100 μM, 12 replicates
# T10 construct: endogenous in cells; host or cells: Neuro2a
# T10 sequence (Q9JKW0 whole entry): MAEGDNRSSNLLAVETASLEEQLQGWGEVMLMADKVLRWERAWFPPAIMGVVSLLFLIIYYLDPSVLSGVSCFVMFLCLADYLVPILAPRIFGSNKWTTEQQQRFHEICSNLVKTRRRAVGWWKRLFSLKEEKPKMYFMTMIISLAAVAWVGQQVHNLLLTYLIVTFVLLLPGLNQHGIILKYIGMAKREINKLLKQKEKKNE
# [11] = target: T11, AEA-DA-modified peptides in Neuro2a cells (Mus musculus, UniProt P53811); conditions: AEA-DA-modified peptide PITPNB P53811 32-45, SEQ ID NO 86; probe 100 μM, 12 replicates
# T11 construct: endogenous in cells; host or cells: Neuro2a
# T11 sequence (P53811 whole entry): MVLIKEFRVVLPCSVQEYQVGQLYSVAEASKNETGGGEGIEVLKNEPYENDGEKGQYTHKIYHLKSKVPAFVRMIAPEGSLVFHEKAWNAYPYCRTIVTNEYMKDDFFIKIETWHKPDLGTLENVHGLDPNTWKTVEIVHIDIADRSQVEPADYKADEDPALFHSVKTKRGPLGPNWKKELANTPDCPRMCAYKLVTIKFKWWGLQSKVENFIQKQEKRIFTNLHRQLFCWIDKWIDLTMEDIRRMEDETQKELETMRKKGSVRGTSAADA
# T1 sequence (O35459 34-327): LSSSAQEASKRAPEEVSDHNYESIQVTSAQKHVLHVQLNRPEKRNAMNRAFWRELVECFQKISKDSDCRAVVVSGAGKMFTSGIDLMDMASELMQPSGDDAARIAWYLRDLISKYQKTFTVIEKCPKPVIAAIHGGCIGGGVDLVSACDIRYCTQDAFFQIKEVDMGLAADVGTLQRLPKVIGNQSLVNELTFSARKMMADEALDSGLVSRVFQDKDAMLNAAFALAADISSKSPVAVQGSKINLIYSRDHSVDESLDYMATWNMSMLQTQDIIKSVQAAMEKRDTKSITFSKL
structure (smiles),measurement,setting,value
"C#CCCCC1(CC/C=C\C/C=C\C/C=C\CCCC(=O)NCCO)N=N1 [AEA-DA, (5Z,8Z,11Z)-N-(2-hydroxyethyl)-14-(3-(pent-4-yn-1-yl)-3H-diazirin-3-yl)tetradeca-5,8,11-trienamide]",Times observed,"[1]; AEA-DA-modified peptide ECH1 O35459 185-211, SEQ ID NO 32",4
same,Times observed,"[1]; AEA-DA-modified peptide ECH1 O35459 196-211, SEQ ID NO 33",8
same,Times observed,"[2]; AEA-DA-modified peptide ARF4 P61750 39-60, SEQ ID NO 13",9
same,Times observed,"[2]; AEA-DA-modified peptide ARF4 P61750 110-128, SEQ ID NO 12",2
same,Times observed,[3],4
same,Times observed,[4],6
same,Times observed,[5],2
same,Times observed,[6],5
same,Times observed,[7],4
same,Times observed,[8],2
same,Times observed,[9],9
same,Times observed,[10],2
same,Times observed,[11],4
